Experimental data reported in patent US12077483B2, “Modified amine lipids” (Intellia Therapeutics, Inc., priority 2018, dated 2024).

Columns and labels:
[1] = Tolerability in rats: liver enzyme panel 24 hours post dose; type: in vivo, rat; settings: Sprague Dawley female rats, 6 mg/kg, serum
Description: For efficacy, Sprague Dawley female rats were dosed i.v. at 0.1 mpk or 0.03 mpk. 6-7 days post dose, rats were euthanized by CO2 asphyxiation. Blood was collected into serum separator tubes. Liver biopsy processed for gDNA and assessed for editing by NGS methods described in Example 115. Results are shown in Table 11 and FIGS. 12A and 12B. For tolerability, Sprague Dawley female rats were dosed at 6 mpk and 24 hours post dose the animals were euthanized by CO2 asphyxiation. Blood was collected into serum separator tubes and sent to an external CRO for quantitation of liver enzymes via a liver enzyme panel.

rat TTR = test: Serum TTR levels in rats after LNP delivery; type: in vivo; settings: Table 11, G534, Sprague Dawley female rats i.v.
TTR in HUH7 cells = test: In vitro editing in HUH7 cells, LNP with Cas9 mRNA and sgRNA G000502, NGS; type: cell-based, human; settings: Table 14; 2000 ng RNA per well, cells harvested 6 hours post-transfection, biological duplicate, G000502 target locus
Description: A series of compounds based on Compound 46 that vary by the inclusion of a C4-12 alkyl at the R^3 position of Formula (IA) (as illustrated in FIG. 13A) were tested for in vitro editing. The human hepatocellular carcinoma cell line […] (Japanese Collection of Research Bioresources Cell Bank, Cat. JCRB0403) was cultured in DMEM media supplemented with 10% fetal bovine serum and 1% Penicillin-Streptomycin. Cells were plated at a density of 20,000 cells/well in a 96-well plate 24 hours prior to transfection (˜80% confluent at time of transfection). The LNPs were formulated at a 1:2 w/w ratio of sgRNA and Cas9 mRNA using the cross flow procedure with lipid molar compositions as described in Table 13 at an N/P ratio of 6.0. LNP compositions were analyzed for average particle size, polydispersity (pdi), total RNA content and encapsulation efficiency of RNA as described in Example 115. Analysis of average particle size, polydispersity (PDI), total RNA content and encapsulation efficiency of RNA are shown in Table 13. LNPs were diluted into media, incubated for 5 minutes at 37 C and pipetted onto cells at a dose of 2000 ng RNA per well. Each condition was assayed in biological duplicate. Cells were harvested post-transfection at 6 hours. Genomic DNA was extracted using 50 μL/well BuccalAmp DNA Extraction solution (Epicentre, Cat. QE09050) according to manufacturer's protocol. All DNA samples were subjected to PCR and subsequent NGS analysis for editing at the G000502 target locus, as described above. As shown in Table 14 and FIG. 13B, all compounds tested were efficacious for in vitro editing.

mouse TTR gene = test: In vivo editing in mouse liver, LNP with Cas9 mRNA and sgRNA G282, NGS; settings: G00282, CD-1 female mice i.v., liver; for Editing Mean % Indel: Table 7; for Mean % Indel: Table 5
Procedure, shortened: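 CD-1 female mice, 6-10 weeks old, received one IV tail-vein dose of LNP (amine lipid/DSPC/cholesterol/PEG-2k-DMG, N/P about 6) carrying Cas9 mRNA and TTR-targeting sgRNA G282 at 1:1 w/w, 0.1 mpk unless otherwise noted. Liver editing at day 6 or 7 was the percentage of NGS reads with indels.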

mouse B2M gene = test: In vivo editing in mouse liver, LNP with Cas9 mRNA and sgRNA G650, NGS; settings: Table 3; guide G650; CD-1 female mice, 0.1 mpk i.v., liver at 6 or 7 days; Exp. 2-7
Procedure, shortened: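 Female CD-1 mice given LNPs (amine lipid/DSPC/cholesterol/PEG-2k-DMG; N/P ~6; sgRNA G650:Cas9 mRNA 1:1 w/w) i.v. at 0.1 mpk unless noted. Liver collected day 6 or 7; B2M editing = indel reads over total reads by amplicon NGS.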

Row | Compound | ALP (U/L) [1] | ALT (U/L) [1] | AST (U/L) [1] | Creatine kinase (U/L) [1] | GGT (U/L) [1] | Total Bilirubin [1] | Serum TTR (rat TTR; dose 0.03 mpk) | Serum TTR % TSS (rat TTR; dose 0.03 mpk) | Serum TTR (rat TTR; dose 0.1 mpk) | Serum TTR % TSS (rat TTR; dose 0.1 mpk) | Editing (TTR in HUH7 cells) | Editing Mean % Indel (mouse TTR gene; dose 0.1 mpk) | Editing Mean % Indel (mouse TTR gene; dose 0.3 mpk) | Editing Mean % Indel (mouse B2M gene) | Mean % Indel (mouse TTR gene; dose 0.1 mpk) | Mean % Indel (mouse TTR gene; dose 0.3 mpk)
1 | CCCCC/C=C\C/C=C\CCCCCCCC(=O)OCC(COC(=O)CCCCCCC/C=C\C/C=C\CCCCC)OC(=O)CCC(CCCCCC)OC(=O)NCCN1CCCC1 (racemic) [Compound 50, 2-((4-(((2-(pyrrolidin-1-yl)ethyl)carbamoyl)oxy)decanoyl)oxy)propane-1,3-diyl (9Z,9′Z,12Z,12′Z)-bis(octadeca-9,12-dienoate)] | 508.6 U/L | 250.8 U/L | 820.8 U/L | 272 U/L | 11 U/L | 0.4 mg/dL | 581.7 µg/mL | 69% TSS | 116.6 µg/mL | 14% TSS | 64.3% | – | – | – | – | –
2 | CCCCC/C=C\C/C=C\CCCCCCCC(=O)OCC(COC(=O)CCCCCCC/C=C\C/C=C\CCCCC)OC(=O)CCC(CCCCCCCC)OC(=O)NCCN(C)CC (stereo not shown) [Compound 34, 2-((4-(((2-(ethyl(methyl)amino)ethyl)carbamoyl)oxy)dodecanoyl)oxy)propane-1,3-diyl (9Z,9′Z,12Z,12′Z)-bis(octadeca-9,12-dienoate)] | 542 U/L | 179.6 U/L | 349.6 U/L | 184.8 U/L | 3.4 U/L | 0.2 mg/dL | 514.2 µg/mL | 61% TSS | 188.9 µg/mL | 22% TSS | 49.0% | 54.9% | 68.3% | 44.8% | – | –
3 | CCCCC/C=C\C/C=C\CCCCCCCC(=O)OCC(COC(=O)CCC(OCCCCCCCC)OCCCCCCCC)COC(=O)OCCCN(CC)CC (stereo not shown) [Compound 49, 3-((4,4-bis(octyloxy)butanoyl)oxy)-2-((((3-(diethylamino)propoxy)carbonyl)oxy)methyl)propyl (9Z,12Z)-octadeca-9,12-dienoate, reference compound] | 784.3 U/L | 408.5 U/L | 534.8 U/L | 157.5 U/L | 2 U/L | 0.6 mg/dL | 790.9 µg/mL | 94% TSS | 669.5 µg/mL | 79% TSS | 22.6% | 50.0% | 67.7% | – | 26.8% | 60.6%
